Drawing on patent publication US5338726A, “Endothelin converting enzyme inhibitors” (Abbott Laboratories, priority 1992, dated 1994), this text covers IC50 for 31 compounds.

A word on the IC50: it is the midpoint of a concentration-inhibition curve.

Counter-ions that a name gives are not always drawn.

This assay has as its target solubilized endothelin converting enzyme (P3 from rat lung). The experiment in a line: ECE Inhibitor Screening Assay. It counts as biochemical. As to conditions: Big ET substrate, 30 minutes at 37° C., HPLC of ET-1 and Big ET, read-out: Inhibition of Endothelin Converting Enzyme IC50. As for the experimental part:
The above mixture without the test compound was used as the control.
Following a 15 minute preincubation at 37° C., benzyl succinate (100 μM), NaOAc, and Big ET (3 μg) were added. The mixture was incubated for 30 minutes at 37° C., followed by addition of pepstatin (40 μM) and 10% TFA to stop the reaction. The mixture was vortexed, centrifuged and the supernatant retained for HPLC determination of Big ET, ET-1 and CTF. […] Percent inhibiton calculations were made with reference to controls based on quantitation of the ET-1 and Big ET peaks at the end of the incubation period.

As for `CCOC(=O)CC(O)C(CC(C)C)NC(=O)C(NC(=O)[C@@H](NC(=O)OC(C)(C)C)C(C)(C)C)C(C)CC` (stereo partly drawn) [Example 1, N-{(S)-2-[(tert-Butyloxycarbonyl]amino]-3,3-dimethylbutanoyl}-Isoleucyl-Statyl Ethyl ester], the IC50 came out at 50 nM. Turning to `CCC(C)C(NC(=O)OC(C)(C)C)C(=O)NC(C(=O)NC(CC(C)C)C(O)CC(=O)NCCCCO)C(C)CC` (stereo not shown) [Example 6, N-Boc-Isoleucyl-Isoleucyl-Statyl (4-Hydroxybutyl)carboxamide], the IC50 was 57 nM. For `CCC(C)C(NC(=O)OC(C)(C)C)C(=O)NC(C(=O)NC(CC(C)C)C(O)CC(=O)NCCCCCO)C(C)CC` (stereo not shown) [Example 7, N-Boc-Isoleucyl-Isoleucyl-Statyl (5-Hydroxyamyl)carboxamide], the concentration for half-maximal inhibition (IC50) amounted to 68 nM.

`CCC(C)C(NC(=O)OC(C)(C)C)C(=O)NC(C(=O)NC(CC(C)C)C(O)CC(=O)NCCCCCCO)C(C)CC` (stereo not shown) [Example 8, N-Boc-Isoleucyl-Isoleucyl-Statyl (6-Hydroxyhexyl)carboxamide]: the IC50 came out at 39 nM. Regarding `CCOC(=O)CC(O)C(CC(C)C)NC(=O)C(NC(=O)C(CC1CCCCC1)NC(=O)OC(C)(C)C)C(C)CC` (stereo not shown) [Example 12, N-Boc-Cyclohexylalanyl-Isoleucyl-Statyl Ethyl ester], the IC50 turned out to be 19 nM. The value for `CCOC(=O)CCNC(=O)CC(O)C(CC(C)C)NC(=O)C(NC(=O)C(NC(=O)OC(C)(C)C)C(C)CC)C(C)CC` (stereo not drawn) [Example 13, N-Boc-Isoleucyl-Isoleucyl-Statyl-β-Alanyl Ethyl ester] was 17 nM. The value for `CCC(C)C(NC(=O)OC(C)(C)C)C(=O)NC(C(=O)NC(CC(C)C)C(O)CC(=O)NCC(C)C)C(C)CC` (stereo not shown) [Example 14, N-Boc-Isoleucyl-Isoleucyl-Statyl Isobutylcarboxamide] was 8 nM.

Take `CCC(C)C(NC(=O)C(CC1CCCCC1)NC(=O)OC(C)(C)C)C(=O)NC(CC(C)C)C(O)CC(=O)O` (stereo not shown) [Example 15, N-Boc-Cyclohexylalanyl-Isoleucyl-Statyl-OH]: the concentration for half-maximal inhibition (IC50) is 47 nM.

`CCC(C)C(NC(=O)OC(C)(C)C)C(=O)NC(C(=O)NC(CC(C)C)C(O)CC(=O)NCCC(=O)O)C(C)CC` (stereo not drawn) [Example 16, N-Boc-Isoleucyl-Isoleucyl-Statyl-β-Alanyl-OH]: the half-inhibitory concentration (IC50) was found to be 30 nM. On to `CCC(C)C(NC(=O)C(CC1CCCCC1)NC(=O)OC(C)(C)C)C(=O)N[C@@H](Cc1c[nH]c2ccccc12)C(O)CC(=O)NC(C(=O)O)C(C)C` (stereo partly drawn) [Example 23, N-[(4S)-4-(N-Boc-Cyclohexylalanyl-Isoleucyl-Amino)-5-(3-indolyl)-3-hydroxypentanoyl]-Valyl-OH], for which the IC50 was 24 nM.

For the compound `CC[C@H](C)[C@H](NC(=O)OC(C)(C)C)C(=O)N[C@H](C(=O)N[C@@H](CC1CCCCC1)[C@@H](O)[C@@H](O)CC(C)C)[C@@H](C)CC` [Example 24, (2S,3R,4S)-2-(N-Boc-Isoleucyl-Isoleucyl-Amino)-1-cyclohexyl-3,4-dihydroxy-6-methylheptane], the IC50 amounted to 7 nM.

As to `CC[C@H](C)[C@H](NC(=O)CCC(=O)O)C(=O)N[C@H](C(=O)N[C@@H](CC1CCCCC1)[C@@H](O)[C@@H](O)CC(C)C)[C@@H](C)CC` [Example 25, (2S,3R,4S)-2-(N-Succinyl-Isoleucyl-Isoleucyl-Amino)-1-cyclohexyl-3,4-dihydroxy-6-methylheptane], the IC50 was found to be 17 nM. The value for `CCC(C)C(NC(=O)C(CC(=O)OCc1ccccc1)NC(=O)OC(C)(C)C)C(=O)NC(C(=O)N[C@@H](CC1CCCCC1)[C@@H](O)[C@@H](O)CC(C)C)C(C)CC` (stereo partly drawn) [Example 26, (2S,3R,4S)-2-(N-BOC-Aspartyl(β-O-Benzyl)-Isoleucyl-Isoleucyl -Amino)-1-cyclohexyl-3,4-dihydroxy-6-methylheptane] was 7 nM; that for `CC[C@H](C)[C@H](NC(C)=O)C(=O)N[C@H](C(=O)N[C@@H](CC1CCCCC1)[C@@H](O)[C@@H](O)CC(C)C)[C@@H](C)CC` [Example 27, (2S,3R,4S)-2-(N-Acetyl-Isoleucyl-Isoleucyl-Amino)-1-cyclohexyl-3,4-dihydroxy-6-methylheptane] was 29 nM.

Turning to `CCC(C)C(NC(=O)C(CC1CCCCC1)NC(=O)OC(C)(C)C)C(=O)N[C@@H](CC1CCCCC1)[C@@H](O)[C@@H](O)CC(C)C` (stereo partly shown) [Example 28], the concentration for half-maximal inhibition (IC50) amounted to 9 nM. The result for `CC[C@H](C)[C@H](NC(=O)OCc1ccccc1)C(=O)N[C@H](C(=O)NC(CC(C)C)P(=O)(O)CC(=O)OC(C)(C)C)[C@@H](C)CC` (stereo partly shown) [Example 33, [1-[N-Cbz-Isoleucyl-Isoleucyl-Amino]-3-methylbutyl (hydroxy)phosphinyl]acetic acid tert-Butyl ester] reads 33 nM; that for `CCC(C)C(NC(=O)OC(C)(C)C)C(=O)NC(C(=O)NC(CC(C)C)C(O)CC(=O)NCCC(C)C)C(C)CC` (stereo not shown) [Example 34, N-Boc-Isoleucyl-Isoleucyl-Statyl Isoamylcarboxamide], 19 nM.

Take `CCC(C)C(NC(=O)OC(C)(C)C)C(=O)NC(C(=O)NC(CC(C)C)C(O)CC(=O)NCC1CCCCC1)C(C)CC` (stereo not shown) [Example 35, N-Boc-Isoleucyl-Isoleucyl-Statyl Cyclohexylmethylcarboxamide]: the IC50 was found to be 17 nM. In the case of `CCC(C)C(NC(=O)C(CC1CCCCC1)NC(=O)OC(C)(C)C)C(=O)NC(CC(C)C)C(O)CC(=O)NCC(C)C` (stereo not shown) [Example 39, N-Boc-Cyclohexylalanyl-Isoleucyl-Statyl Isobutylcarboxamide], the half-maximal inhibitory concentration (IC50) came out at 9.5 nM. For the compound `CCC(C)C(NC(=O)C(CC1CCCCC1)NC(=O)OC(C)(C)C)C(=O)NC(CC(C)C)C(O)CC(=O)NCCc1ccccn1` (stereo not shown) [Example 40, N-Boc-Cyclohexylalanyl-Isoleucyl-Statyl N-(2-(2-Pyridyl)ethyl)Carboxamide], the IC50 is 10 nM.

Take `CCC(C)C(NC(=O)C(CC1CCCCC1)NC(=O)OC(C)(C)C)C(=O)NC(CC(C)C)C(O)CC(=O)NCCN(C)C` (stereo not shown) [Example 41, N-Boc-Cyclohexylalanyl-Isoleucyl-Statyl N-(2-N',N'-Dimethylaminoethyl)Carboxamide]: the IC50 is 18 nM. `CCC(C)C(NC(=O)C(CC1CCCCC1)NC(=O)OC(C)(C)C)C(=O)NC(CC(C)C)C(O)CC(=O)NCCN1CCOCC1` (stereo not shown) [Example 42, N-Boc-Cyclohexylalanyl-Isoleucyl-Statyl N-(2-(Morpholin-4-yl)ethyl)Carboxamide]: the IC50 stood at 16 nM. The result for `CCC(C)C(NC(=O)C(CC1CCCCC1)NC(=O)N1CCN(C)CC1)C(=O)N[C@@H](Cc1ccc2ccccc2c1)[C@@H](O)[C@@H](O)CC(C)C` (stereo partly drawn) [Example 43, (2S,3R,4S)-2-{[IN-(4-Methylpiperazin-1-yl-carbonyl)-Cyclohexylalanyl-Isoleucyl]amino}-1-(2-naphthyl)-3,4-dihydroxy-6-methylheptane Hydrochloride] reads 6 nM. For `CCC(C)C(NC(=O)C(CC(C)(C)C)NC(=O)OC(C)(C)C)C(=O)NC(CC(C)C)C(O)CC(=O)O` (stereo not shown) [Example 45, N-Boc-tert-Butylalanyl-Isoleucyl-Statyl-OH], the concentration for half-maximal inhibition (IC50) stood at 51 nM. The value for `CCC(C)C(NC(=O)C(CC(=O)OCc1ccccc1)NC(=O)OC(C)(C)C)C(=O)NC(C(=O)N[C@@H](Cc1ccc2ccccc2c1)[C@@H](O)[C@@H](O)CC(C)C)C(C)CC` (stereo partly drawn) [Example 46, (2S,3R,4S)-2-{[N-Boc-Aspartyl(β-O-Benzyl)-Isoleucyl-Isoleucyl]amino}-1-(2-naphthyl)-3,4-dihydroxy-6-methylheptane] was 4 nM; that for `CCC(C)C(NC(=O)OC(C)(C)C)C(=O)NC(C(=O)NC(CC(C)C)C(O)CC(=O)NCCc1ccccn1)C(C)CC` (stereo not shown) [Example 47, N-Boc-Isoleucyl-Isoleucyl-Statyl N-(2-(2-Pyridyl)ethyl)Carboxamide] was 20 nM; that for `CCC(C)C(NC(=O)C(CC1CCCCC1)NC(=O)CCC(=O)O)C(=O)N[C@@H](Cc1ccc2ccccc2c1)[C@@H](O)[C@@H](O)CC(C)C` (stereo partly drawn) [Example 48, (2S,3R,4S)-2-{[N-Succinyl-Cyclohexylalanyl-Isoleucyl]amino}-1-(2-naphthyl)-3,4-dihydroxy-6-methylheptane] was 7 nM. The value for `CCC(C)C(NC(=O)OC(C)(C)C)C(=O)NC(C(=O)NC(CC(C)C)C(O)CC(=O)N(C)CC(C)C)C(C)CC` (stereo not shown) [Example 52, N-Boc-Isoleucyl-Isoleucyl-Statyl N-Methyl-N-Isobutyl Carboxamide] was 10 nM; that for `CCC(C)C(NC(=O)C(CC1CCCCC1)NC(=O)N1CCOCC1)C(=O)N[C@@H](Cc1ccc2ccccc2c1)[C@@H](O)[C@@H](O)CC(C)C` (stereo partly drawn) [Example 53, (2S,3R,4S)-2-{[N-(Morpholin-1-yl-carbonyl)-Cyclohexylalanyl-Isoleucyl]amino}-1-(2-naphthyl)-3,4-dihydroxy-6-methylheptane] was 3 nM; that for `CC[C@H](C)[C@H](NC(=O)[C@H](C)N(C(=O)N(C)CCN(C)C)C1CCCCC1)C(=O)N[C@@H](Cc1ccc2ccccc2c1)[C@@H](O)[C@@H](O)CC(C)C` [Example 54, (2S,3R,4S)-2-{[{N-(N,N-Dimethylaminoethyl)-N-methylamino}carbonyl -Cyclohexylalanyl-Isoleucyl]amino}-1-(2-naphthyl)-3,4-dihydroxy-6-methylheptane] was 5 nM. The result for `CC[C@H](C)[C@H](NC(=O)[C@H](C)N(C1CCCCC1)S(=O)(=O)N1CCN(C)CC1)C(=O)N[C@@H](Cc1ccc2ccccc2c1)[C@@H](O)[C@@H](O)CC(C)C` [Example 55, (2S,3R,4S)-2-{[N-(4-Methylpiperazin-1-yl-sulfonyl)-Cyclohexylalanyl-Isoleucyl]amino}-1-(2-naphthyl)-3,4-dihydroxy-6-methylheptane] reads 5 nM.
